“And” between values parts separate entries of the source, which are not always exact repeats. Identical values can stand only once.
Legend:
hP2X7R [1] = biological target: T1, hP2X7R (Homo sapiens, UniProt Q99572); assay: Bio-layer interferometry (BLI), ATP binding to biotinylated hP2X7R
T1 sequence (Q99572 1-595): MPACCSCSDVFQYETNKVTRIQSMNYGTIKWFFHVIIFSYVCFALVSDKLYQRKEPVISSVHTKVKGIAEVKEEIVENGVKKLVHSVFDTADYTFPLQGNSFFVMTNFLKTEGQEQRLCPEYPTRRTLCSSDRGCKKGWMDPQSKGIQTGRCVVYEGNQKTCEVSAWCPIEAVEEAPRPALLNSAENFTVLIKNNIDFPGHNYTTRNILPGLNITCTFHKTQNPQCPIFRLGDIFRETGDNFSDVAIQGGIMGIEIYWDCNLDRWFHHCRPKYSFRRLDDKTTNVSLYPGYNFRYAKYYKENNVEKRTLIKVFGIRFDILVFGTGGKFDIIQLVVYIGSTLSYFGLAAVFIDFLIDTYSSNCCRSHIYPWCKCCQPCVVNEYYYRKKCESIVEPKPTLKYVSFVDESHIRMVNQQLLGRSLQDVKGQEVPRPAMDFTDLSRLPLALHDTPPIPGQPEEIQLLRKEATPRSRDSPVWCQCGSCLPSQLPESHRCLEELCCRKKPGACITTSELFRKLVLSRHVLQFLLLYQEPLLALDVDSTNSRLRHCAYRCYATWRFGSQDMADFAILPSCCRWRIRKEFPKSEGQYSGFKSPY
Method: Briefly, BLI experiments were performed at 30 °C in 384-well tilted-bottom plates (Sartorius) with orbital shaking at 1000 r.p.m. on a ForteBio Octet RED384 instrument (ForteBio Data Acquisition software 11.0) using pre-equilibrated (0.22 μm filtered PBS at pH 7.4 and 0.5 mM DDM from Anatrace) SA biosensor tips (Sartorious) loaded with 50 μg/mL of biotinylated hP2X7R ligand or biocytin (Sigma-Aldrich) control for 1800 s[34],[35]. The loaded SA sensors were blocked with 100 μg/mL of biocytin for 150 s and then washed with running buffer for 60 s. […] After data collection, rate constants for association and dissociation were determined using ForteBio Data Analysis HT 11.0 evaluation software. To maximize signal between the large ligand and small analyte, the raw data were double reference subtracted[34],[35]. For each interaction pair, the association rate constant (ka) and the dissociation rate constant (kd) were calculated with an average of three independent assays with at least four different concentrations that were globally fit to a 1:1 Langmuir binding model. The equilibrium dissociation constant (KD) was calculated as the ratio of kd to ka. The KD, ka, and kd values are reported as the average ± the standard deviation of three replicate datasets for each analyte, with each dataset using at least four independent traces. The analyzed data were exported and plotted in GraphPad Prism 9.0.

mP2X7R = biological target: T2, mP2X7R (Mus musculus, UniProt Q9Z1M0); assay: TEVC dose response of ATP at mP2X7R in Xenopus oocytes; format: cell-based
T2 construct: expressed in transfected cells
T2 sequence (Q9Z1M0 1-595): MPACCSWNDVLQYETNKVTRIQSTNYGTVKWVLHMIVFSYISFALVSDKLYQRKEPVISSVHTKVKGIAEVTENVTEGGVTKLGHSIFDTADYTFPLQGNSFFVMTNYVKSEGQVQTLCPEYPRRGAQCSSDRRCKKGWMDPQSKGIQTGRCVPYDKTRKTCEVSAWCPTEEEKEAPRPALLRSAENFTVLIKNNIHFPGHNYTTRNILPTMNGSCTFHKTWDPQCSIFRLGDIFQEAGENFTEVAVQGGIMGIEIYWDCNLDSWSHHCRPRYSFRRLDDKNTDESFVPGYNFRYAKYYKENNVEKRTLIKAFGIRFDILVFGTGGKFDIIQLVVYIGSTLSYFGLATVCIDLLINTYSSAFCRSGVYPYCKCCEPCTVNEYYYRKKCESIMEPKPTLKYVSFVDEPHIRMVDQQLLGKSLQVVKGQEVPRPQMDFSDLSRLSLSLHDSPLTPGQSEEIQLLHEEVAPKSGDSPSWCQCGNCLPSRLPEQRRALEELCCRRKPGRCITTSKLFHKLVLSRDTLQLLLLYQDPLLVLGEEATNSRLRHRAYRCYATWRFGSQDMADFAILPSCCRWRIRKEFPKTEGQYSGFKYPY
Method: (§1) Defolliculated Xenopus laevis oocytes were purchased from Ecocyte Bioscience and kept in Modified Barth’s Solution (88 mM NaCl, 1 mM KCl, 0.82 mM MgSO4, 0.33 mM Ca(NO3)2·4H2O, 0.41 mM CaCl2·2H2O, 2.4 mM NaHCO3, 5 mM HEPES) supplemented with amikacin 250 mg/L and gentamycin 150 mg/L. Oocytes were then injected with 50 nL of either full-length wild-type hP2X7R (40 ng/μL), mP2X7R (20 ng/μL), or rP2X7R (20 ng/μL) mRNA made from linearized pcDNA 3.1x according to the protocol provided in the mMessage mMachine kit (Invitrogen). Injected oocytes were allowed to express for ~20 h before recording was performed.
(§2) Data acquisition was performed using an Oocyte Clamp OC-725C amplifier and pClamp 8.2 software. Buffers were applied using a gravity-fed RSC-200 Rapid Solution Changer, flowing at ~5 mL/min. All experiments use Sutter filamented glass 10 cm in length with an inner diameter of 0.69 mm and an outer diameter of 1.2 mm to impale oocytes and clamp the holding voltage at −60 mV. Experiments were recorded in buffer containing 100 mM NaCl, 2.5 mM KCl, 0.1 mM EDTA, 0.1 mM flufenamic acid, and 5 mM HEPES at pH 7.4.
(§3) This value is then averaged amongst each singular condition and reported as the mean ± SD.

hP2X7R [2] = biological target: T1, hP2X7R; assay: TEVC dose response of ATP at hP2X7R in Xenopus oocytes; format: cell-based; set-up: expressed in transfected cells; host or cells: Xenopus laevis oocytes injected with mRNA made from pcDNA 3.1x
Method: as §1, §2, §3

rP2X7R [3] = biological target: rP2X7R; set-up: method as in PMID 39107314; details: BLI; read-out: equilibrium dissociation constant (KD), rP2X7R; cited from earlier work
rP2X7R [4] = biological target: T3, rP2X7R (Rattus norvegicus, UniProt Q64663); assay: TEVC dose response of ATP at rP2X7R in Xenopus oocytes; format: cell-based; set-up: expressed in transfected cells; host or cells: Xenopus laevis oocytes injected with mRNA made from pcDNA 3.1x
T3 sequence (Q64663 1-595): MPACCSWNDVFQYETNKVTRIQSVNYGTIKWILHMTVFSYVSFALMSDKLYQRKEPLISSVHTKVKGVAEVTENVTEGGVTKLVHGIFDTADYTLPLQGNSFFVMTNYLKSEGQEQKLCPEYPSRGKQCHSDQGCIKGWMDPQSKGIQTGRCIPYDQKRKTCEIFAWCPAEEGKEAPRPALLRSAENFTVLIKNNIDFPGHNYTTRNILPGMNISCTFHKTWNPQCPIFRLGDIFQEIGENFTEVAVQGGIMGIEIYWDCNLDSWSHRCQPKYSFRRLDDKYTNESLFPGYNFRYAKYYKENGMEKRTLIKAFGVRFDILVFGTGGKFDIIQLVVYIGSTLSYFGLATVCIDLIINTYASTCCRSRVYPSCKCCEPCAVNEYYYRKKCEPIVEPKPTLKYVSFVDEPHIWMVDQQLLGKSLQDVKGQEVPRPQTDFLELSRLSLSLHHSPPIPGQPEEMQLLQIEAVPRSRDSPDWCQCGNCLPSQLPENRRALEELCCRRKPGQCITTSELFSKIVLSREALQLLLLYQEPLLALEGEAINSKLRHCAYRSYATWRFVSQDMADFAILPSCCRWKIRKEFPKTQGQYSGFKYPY
Method: as §1, §2, §3

[5] = set-up: method as in PMID 39139642; details: cited from earlier work
P2X7R = details: cited from earlier work
[6] = biological target: the molecule itself; assay: cryo-EM structure; purified detergent-solubilised receptor (20 mM HEPES pH 7.0, 100 mM NaCl, 0.5 mM C12M); apo, or incubated with 900 uM ATP or antagonist at 3-4x the molar concentration of the monomer
[7] = [ATP] 3000 μM, single experiments

Molecule: Nc1ncnc2c1ncn2[C@@H]1O[C@H](COP(=O)(O)OP(=O)(O)OP(=O)(O)O)[C@@H](O)[C@H]1O [ATP]
- rate constant for association (ka) (hP2X7R [1]; BLI, 1:1 Langmuir model): 7.4 ± 1.3 × 10^4 M^−1 s^−1
- rate constant for dissociation (kd) (hP2X7R [1]; BLI, 1:1 Langmuir model): 4.8 ± 1.2 × 10^−2 s^−1
- Kd (hP2X7R [1]; BLI, mean ± SD, triplicate, read-out: equilibrium dissociation constant (KD), hP2X7R): 0.65 ± 0.12 µM
- KD higher than at the rP2X7R (hP2X7R [1]; hP2X7R vs rP2X7R): ~ 20%
- ka slower than for ATP binding to the rP2X7R (hP2X7R [1]; hP2X7R vs rP2X7R): ~ 27%
- kd slower than for ATP binding to the rP2X7R (hP2X7R [1]; hP2X7R vs rP2X7R): ~ 6%
- Normalized response, mP2X7R (mP2X7R; [ATP] 1.2 μM): 0.02 and 0.01
- Normalized response, mP2X7R (mP2X7R; [ATP] 3.7 μM): 0.017 and 0.013 and 0.009
- Normalized response, mP2X7R (mP2X7R; [ATP] 37 μM): 0.27 and 0.22 and 0.15
- Normalized response, mP2X7R (mP2X7R; [ATP] 1000 μM): 1 and 0.88
- Normalized response, mP2X7R (mP2X7R; [7]): 1 and 0.9
- EC50 (mP2X7R; read-out: EC50 for ATP, mP2X7R, TEVC, absence of divalent cations, mean ± SD, triplicate): 70 ± 17 µM
- Normalized response, hP2X7R (hP2X7R [2]; [ATP] 37 μM): 0.2 and 0.1456
- Normalized response, hP2X7R (hP2X7R [2]; [ATP] 1000 μM): 1 and 1.01 and 0.9474
- Normalized response, hP2X7R (hP2X7R [2]; [7]): 1.044 and 1.035 and 1.029
- EC50 (hP2X7R [2]; read-out: EC50 for ATP, hP2X7R, TEVC, absence of divalent cations, mean ± SD, triplicate): 89 ± 8.3 µM
- Kd (rP2X7R [3]): 0.54 ± 0.23 µM
- Normalized response, rP2X7R (rP2X7R [4]; [ATP] 2 μM): 0
- Normalized response, rP2X7R (rP2X7R [4]; [ATP] 37 μM): 0.41 and 0.5375 and 0.6343
- Normalized response, rP2X7R (rP2X7R [4]; [ATP] 1000 μM): 0.98 and 0.9571 and 0.9954
- Normalized response, rP2X7R (rP2X7R [4]; [7]): 1 and 0.9691
- EC50 (rP2X7R [4]; read-out: EC50 for ATP, rP2X7R, TEVC, absence of divalent cations, mean ± SD, triplicate): 34 ± 8.4 µM

Molecule: O=C(NCC12CC3CC(CC(C3)C1)C2)c1cc(CCCNCCCO)ccc1Cl [AZD9056]
- efficacy in phase II trials for rheumatoid arthritis [5]: limited efficacy

Molecule: Clc1cccc(-c2nnnn2Cc2cccnc2)c1Cl [Compound A438079]
- inhibitory activity across human, mouse and rat orthologs (P2X7R): equal inhibitory activity across all three orthologs

B1: full-length wild-type mouse P2X7 receptor (receptor, UniProt Q9Z1M0 1-595, looked up)
chain: T2 sequence (Q9Z1M0 1-595)
modifications: palmitoylation of residues in the C-cys anchor
notes: P2X7 receptor (P2X purinoceptor 7), mouse, full-length wild-type, no mutations or truncations; C-terminal HRV 3-C site, GFP and histidine tag removed during purification; Homotrimeric ion channel; solved in the apo closed state; also called mP2X7R; mP2X7; not shown: GFP, C-terminal, cleaved
- stoichiometry N [6]: 3

B2: full-length wild-type human P2X7 receptor (receptor, UniProt Q99572 1-595, looked up)
chain: T1 sequence (Q99572 1-595)
modifications: palmitoylation of residues in the C-cys anchor; limited glycosylation, acylation and palmitoylation modelled
notes: P2X7 receptor (P2X purinoceptor 7), human, full-length wild-type, no mutations or truncations; C-terminal HRV 3-C site, GFP and histidine tag removed during purification; Homotrimeric ion channel; also called hP2X7R; hP2X7; not shown: GFP, C-terminal, cleaved
- stoichiometry N [6]: 3

— publication PMC12436592 (Nature Communications, 2025)
